Reference: patent US9670227B2, “Thienopyrimidine derivatives, a process for their preparation and pharmaceutical compositions containing them” (LES LABORATOIRES SERVIER, priority 2013, dated 2017)
Like-named read-outs stand apart in the source and are kept apart here.

What was measured:
[1] = molecular target: Mcl-1 protein (UniProtKB primary accession number: Q07820) (Homo sapiens, UniProt Q07820); assay: Inhibition of Mcl-1 by fluorescence polarisation, Method 1; assay type: binding; settings: read-out: IC50 (M) Mcl-1 FP
Chain of Mcl-1 protein (Q07820 whole entry): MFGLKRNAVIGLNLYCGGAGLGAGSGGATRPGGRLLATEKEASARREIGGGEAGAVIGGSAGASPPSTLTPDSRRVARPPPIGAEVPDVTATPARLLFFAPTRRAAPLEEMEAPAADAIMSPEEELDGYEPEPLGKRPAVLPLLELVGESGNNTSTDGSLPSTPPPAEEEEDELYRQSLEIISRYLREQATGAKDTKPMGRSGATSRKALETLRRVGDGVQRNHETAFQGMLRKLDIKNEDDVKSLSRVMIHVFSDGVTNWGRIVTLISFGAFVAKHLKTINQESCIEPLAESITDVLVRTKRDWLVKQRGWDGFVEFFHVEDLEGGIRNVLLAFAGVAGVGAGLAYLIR
Method in brief: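 FP competition, 11-point compound titration in 5% final DMSO; protein and labelled probe at 5 nM and 1 nM final in HEPES/NaCl/Tween 20 buffer, pH 7.4.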

[2] = system: H929 multiple myeloma tumour line; assay: In vitro cytotoxicity, Microculture Tetrazolium Assay; assay type: cell-based; settings: H929 cells, 48 hours exposure, read-out: IC50 (μM) MTT H929
Method: The cytotoxicity studies were carried out on the H929 multiple myeloma tumour line.
The cells are distributed onto microplates and exposed to the test compounds for 48 hours.

[3] = system: AMO-1 multiple myeloma cells; assay: Quantification of the cleaved form of PARP in vivo (MSD ELISA, tumour lysates); design: species or system mice (SCID strain); settings: activation factor: cleaved PARP in treated mice / control mice, AMO-1 xenograft in SCID mice, intraveinous or oral routes
Method in brief: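 SCID mice bearing subcutaneous AMO-1 xenografts (1.10^7 cells) dosed intravenously or orally 12 to 14 days after grafting. Cleaved PARP in tumour lysates measured by MSD ELISA. Reported as activation factor, the ratio of treated to control cleaved PARP.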

[4] = fluorescence polarisation, Method 1, or Method 2
[5] = Homo sapiens, NCI-H929, 48 h, MTT
[6] = fluorescence polarisation test, Method 2 values are underlined in the patent (underlining not visible here)

IC50 [1, 4]	IC50 [1, 6]	IC50 ([1]; fluorescence polarisation test, Method 1, or Method 2 where the value is underlined (underlining not visible))	Structure (SMILES)	IC50 [2, 5]	PARP fold [3]	IC50 ([2]; MTT)	IC50 ([2]; Homo sapiens, NCI-H929, 48 h, cell viability)
1.4e-09 M	–	–	Cc1c(-c2c(-c3ccc(F)cc3)sc3ncnc(OC(Cc4ccccc4OCc4ccnc(-c5ccccc5O)n4)C(=O)O)c23)ccc(OCCN2CCN(C)CC2)c1Cl [Example 722, (2R)-2-{[(5Sa)-5-{3-chloro-2-methyl-4-[2-(4-methylpiperazin-1-yl)ethoxy]phenyl}-6-(4-fluorophenyl)thieno[2,3-d]pyrimidin-4-yl]oxy}-3-(2-{[2-(2-hydroxyphenyl)pyrimidin-4-yl]methoxy}phenyl)propanoic acid]	0.023 µM	296.6 fold	–	–
6.74e-07 M	–	–	COc1ccccc1-c1nccc(COc2ccccc2CC(Oc2ncnc3sc(-c4ccc(F)cc4)c(-c4ccc(OCCN5CCN(C)CC5)c(Cl)c4C)c23)C(=O)OC(C)C)n1 [Example 788, propan-2-yl (2R)-2-{[(5Sa)-5-{3-chloro-2-methyl-4-[2-(4-methylpiperazin-1-yl)ethoxy]phenyl}-6-(4-fluorophenyl)thieno[2,3-d]pyrimidin-4-yl]oxy}-3-(2-{[2-(2-methoxyphenyl)pyrimidin-4-yl]methoxy}phenyl)propanoate]	0.494 µM	144.8 fold	–	–
5.2e-09 M	–	–	CC#Cc1sc2ncnc(O[C@H](Cc3ccccc3OCc3ccnc(-c4ccncc4C)n3)C(=O)O)c2c1-c1ccc(OCCN2CCN(C)CC2)c(Cl)c1C [Example 483, (2R)-2-{[(5Sa)-5-{3-chloro-2-methyl-4-[2-(4-methylpiperazin-1-yl)ethoxy]phenyl}-6-(prop-1-yn-1-yl)thieno[2,3-d]pyrimidin-4-yl]oxy}-3-(2-{[2-(3-methylpyridin-4-yl)pyrimidin-4-yl]methoxy}phenyl)propanoic acid]	–	411 fold	0.003 µM	–
9.48e-10 M	–	–	COCCOc1ccccc1-c1nccc(COc2ccccc2CC(Oc2ncnc3sc(-c4ccc(F)cc4)c(-c4ccc(OCCN5CCN(C)CC5)c(Cl)c4C)c23)C(=O)O)n1 [Example 724, (2R)-2-{[(5Sa)-5-{3-chloro-2-methyl-4-[2-(4-methylpiperazin-1-yl)ethoxy]phenyl}-6-(4-fluorophenyl)thieno[2,3-d]pyrimidin-4-yl]oxy}-3-[2-({2-[2-(2-methoxyethoxy)phenyl]pyrimidin-4-yl}methoxy)phenyl]propanoic acid]	0.002 µM	188.9 fold	–	–
–	4.2e-09 M	–	CCCCn1nncc1COc1ccccc1CC(Oc1ncnc2sc(-c3ccc(F)cc3)c(-c3ccc(OCCN4CCN(C)CC4)c(Cl)c3C)c12)C(=O)O [Example 95, (2R)-3-{2-[(1-butyl-1H-1,2,3-triazol-5-yl)methoxy]phenyl}-2-{[(5Sa)-5-{3-chloro-2-methyl-4-[2-(4-methylpiperazin-1-yl)ethoxy]phenyl}-6-(4-fluorophenyl)thieno[2,3-d]pyrimidin-4-yl]oxy}propanoic acid]	0.022 µM	156.8 fold	–	–
–	–	1.72e-07 M	COc1ccccc1-c1nccc(COc2ccccc2CC(Oc2ncnc3sc(-c4ccc(F)cc4)c(-c4ccc(OCCN5CCN(C)CC5)c(Cl)c4C)c23)C(=O)OCC(F)(F)F)n1 [Example 808, 2,2,2-trifluoroethyl (2R)-2-{[(5Sa)-5-{3-chloro-2-methyl-4-[2-(4-methylpiperazin-1-yl)ethoxy]phenyl}-6-(4-fluorophenyl)thieno[2,3-d]pyrimidin-4-yl]oxy}-3-(2-{[2-(2-methoxyphenyl)pyrimidin-4-yl]methoxy}phenyl)propanoate]	–	155 fold	–	0.01 µM
9.48e-10 M	–	–	COc1ccccc1-c1nccc(COc2ccccc2CC(Oc2ncnc3sc(-c4ccc(OCc5ccncc5)cc4)c(-c4ccc(OCCN5CCN(C)CC5)c(Cl)c4C)c23)C(=O)O)n1 [Example 774, (2R)-2-[((5Sa)-5-{3-chloro-2-methyl-4-[2-(4-methylpiperazin-1-yl)ethoxy]phenyl}-6-[4-(pyridin-4-ylmethoxy)phenyl]thieno[2,3-d]pyrimidin-4-yl)oxy]-3-(2-{[2-(2-methoxyphenyl)pyrimidin-4-yl]methoxy}phenyl)propanoic acid]	0.009 µM	104.8 fold	–	–
–	5.5e-09 M	–	Cc1cc(-c2nccc(COc3ccccc3CC(Oc3ncnc4sc(-c5ccc(F)cc5)c(-c5ccc(OCCN6CCN(C)CC6)c(Cl)c5C)c34)C(=O)O)n2)ccn1 [Example 118, (2R)-2-{[(5Sa)-5-{3-chloro-2-methyl-4-[2-(4-methylpiperazin-1-yl)ethoxy]phenyl}-6-(4-fluorophenyl)thieno[2,3-d]pyrimidin-4-yl]oxy}-3-(2-{[2-(2-methylpyridin-4-yl)pyrimidin-4-yl]methoxy}phenyl)propanoic acid]	0.006 µM	159.8 fold	–	–
